Patent publication US8168430B2, “Method for preparation of hepatocyte using ES cell” (Nihon University, priority 2006, dated 2012)

Columns and labels:
TT2 ES cells [1] = test: Expression of differentiation markers (RT-PCR, western blot) in ES cells induced to differentiate from embryoid bodies; settings: for expression of the differentiation markers for hepatocyte (albumin, Cyp7a1 etc.): cultured 18 days in supplemented differentiation-inducing medium, RT-PCR and western blot
TT2 ES cells [2] = test: FACS analysis of albumin producing cells; type: cell-based, mouse; settings: cultured 9 days; FACS with anti-albumin antibodies; control 22%
Procedure: The medium of the cultured cells was removed and washing was performed using PBS (−). After the cells were detached from the surface of the dish using 0.25% trypsin solution, 5 mL of a collagenase solution as described below was added to the cells and the cells were incubated at 37° C. for 30 minutes in order to digest the intercellular adhesion.
After digestion, cells were collected by centrifugation (1000 rpm, 4° C., 5 minutes) and fixed using 1 mL of ice-chilled 100% methanol. After fixing the cells, centrifugation (1500 rpm, 4° C., 5 minutes) was performed in order to remove the methanol. […] Then FITC-bonded sheep anti-rabbit IgG (MP Biomedicals Inc., Catalog# 55647, Lot# 02756) was added to the cells and the cells were allowed to stand for one hour while shielding against light. After standing for one hour, the cells were loaded by a FACS Canto™ (Becton Dickinson, Franklin Lakes, N.J.) wherein a FSC voltage was set to 80, a FITC voltage was set to 300 and a threshold was set to 1000. Thereafter BD DiVa Software was used for analysis. In FIGS. 12 and 13, the intensity of FITC is shown on the horizontal axis and FSC is shown on the vertical axis.
Then uPA, DFP-treated uPA or tPA was added to differentiation-inducing medium and cultured for 9 days. Cells were isolated using trypsin treatment and collagenase treatment, and FACS analysis was performed using anti-albumin antibodies.

Compound | expression of the differentiation markers for hepatocyte (albumin, Cyp7a1 etc.) (TT2 ES cells [1]) | albumin producing cells, share of the total number of cells (TT2 ES cells [2]) | induction of differentiation into hepatocytes (TT2 ES cells [1]; differentiation-inducing medium supplemented with the factor)
N=C(N)c1ccc(N)cc1 [p-aminobenzamidine, reference compound] | suppressed | – | –
tPA: tissue-type PA which has the same substrate specificity as uPA | almost no change | 27.2% | did not induce differentiation into hepatocytes
